Tests used:
[1] = molecular target: T1, alpha7 nicotinic acetylcholine receptor (Rattus norvegicus, UniProt Q05941); assay: functional FLIPR assay, alpha7 nAChR stably expressed in GH4C1 cells; assay type: cell-based; details: GH4C1 cell line expressing the alpha7 nAChR; concentration-response curves; read-out: Alpha 7 EC50
T1 construct: expressed in transfected cells
Source text: Rat GH4C1 cells were then transfected with the rat receptor, cloned and analyzed for functional alpha7 nicotinic receptor expression employing a FLIPR assay to measure changes in intracellular calcium concentrations.
The FLIPR system allows the measurements of real time Ca^2+-concentration changes in living cells using a Ca^2+ sensitive fluorescence dye (such as Fluo4). This instrument enables the screening for agonists and antagonists for alpha 7 nAChR channels stably expressed in GH4C1 cells.
GH4C1 cells stably transfected with rat-alpha7-nAChR (see above) were used. These cells are poorly adherent and therefore pretreatment of flasks and plates with poly-D-lysine was carried out. Cells are grown in 150 cm^2 T-flasks, filled with 30ml of medium at 37° C. and 5% CO2.
EC50 and IC50 values were calculated using the IDBS XLfit4.1 software package employing a sigmoidal concentration-response (variable slope) equation:
Certain compounds of the present disclosure were tested using the functional FLIPR primary screening assay employing the stable recombinant GH4C1 cell line expressing the alpha7 nAChR. Hits identified were validated further by generation of concentration-response curves.

[2] = molecular target: T2, alpha3 (ganglionic) nACh receptors (Homo sapiens, UniProt P30926+P32297); assay: calcium-monitoring FLIPR selectivity assay using the native SH-SY5Y cell line; assay type: cell-based; details: read-out: Alpha 3 EC50
T2 construct: using the native SH-SY5Y cell line; endogenous in cells; host or cells: SH-SY5Y
Source text: Functional FLIPR assays were developed in order to test the selectivity of compounds against the alpha1 (muscular) and alpha3 (ganglionic) nACh receptors and the structurally related 5-HT3 receptor. […] In order to test selectivity against the 5-HT3 receptor, a recombinant cell line was constructed expressing the human 5-HT3A receptor in HEK 293 cells and a calcium-monitoring FLIPR assay employed.

T2 sequence (P32297 32-505): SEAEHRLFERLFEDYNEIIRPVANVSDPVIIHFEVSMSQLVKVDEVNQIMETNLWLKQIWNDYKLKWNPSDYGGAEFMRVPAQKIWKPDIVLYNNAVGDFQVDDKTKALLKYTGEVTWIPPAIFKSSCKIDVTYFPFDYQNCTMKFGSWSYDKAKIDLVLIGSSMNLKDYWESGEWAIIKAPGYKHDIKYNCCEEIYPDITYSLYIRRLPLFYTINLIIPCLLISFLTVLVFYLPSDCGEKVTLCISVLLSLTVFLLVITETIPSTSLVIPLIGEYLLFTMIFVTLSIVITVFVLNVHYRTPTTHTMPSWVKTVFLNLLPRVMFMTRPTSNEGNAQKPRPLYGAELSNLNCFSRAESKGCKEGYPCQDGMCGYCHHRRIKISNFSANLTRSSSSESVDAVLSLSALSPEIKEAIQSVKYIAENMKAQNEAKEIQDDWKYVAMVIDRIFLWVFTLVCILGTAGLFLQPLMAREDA
T2 sequence (P30926 22-498): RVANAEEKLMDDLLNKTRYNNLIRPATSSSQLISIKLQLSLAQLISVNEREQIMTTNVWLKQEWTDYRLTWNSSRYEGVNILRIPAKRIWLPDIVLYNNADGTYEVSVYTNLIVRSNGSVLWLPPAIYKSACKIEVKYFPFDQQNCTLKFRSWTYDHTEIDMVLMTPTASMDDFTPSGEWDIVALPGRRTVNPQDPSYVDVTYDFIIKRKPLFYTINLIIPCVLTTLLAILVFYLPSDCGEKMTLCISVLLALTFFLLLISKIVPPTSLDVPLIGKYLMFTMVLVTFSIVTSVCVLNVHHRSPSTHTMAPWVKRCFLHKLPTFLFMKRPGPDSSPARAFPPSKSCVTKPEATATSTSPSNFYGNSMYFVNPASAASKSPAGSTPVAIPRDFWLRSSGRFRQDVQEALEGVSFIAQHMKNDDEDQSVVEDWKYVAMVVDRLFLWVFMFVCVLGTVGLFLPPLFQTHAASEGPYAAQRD
T1 sequence (Q05941 23-502): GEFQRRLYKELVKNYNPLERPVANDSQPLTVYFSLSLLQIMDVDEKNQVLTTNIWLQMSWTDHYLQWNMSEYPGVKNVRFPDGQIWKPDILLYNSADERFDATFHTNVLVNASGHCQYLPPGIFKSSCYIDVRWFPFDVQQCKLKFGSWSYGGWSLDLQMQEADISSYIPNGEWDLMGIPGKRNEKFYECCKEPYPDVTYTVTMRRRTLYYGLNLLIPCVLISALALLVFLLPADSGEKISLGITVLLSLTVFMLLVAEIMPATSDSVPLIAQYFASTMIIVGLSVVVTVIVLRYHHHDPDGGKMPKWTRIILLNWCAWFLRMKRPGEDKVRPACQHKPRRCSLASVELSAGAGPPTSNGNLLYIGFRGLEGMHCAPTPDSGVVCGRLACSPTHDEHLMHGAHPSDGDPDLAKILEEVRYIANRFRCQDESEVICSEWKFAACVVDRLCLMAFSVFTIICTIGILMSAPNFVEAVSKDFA

SMILES: COc1ncccc1-c1ccc(NC(=O)NCCCCN2CCCCC2)cc1
- EC50 [1]: 60 nM
- EC50 [2]: 5670 nM
